This test deals with T1, Receptor-interacting serine/threonine-protein kinase 1 (Homo sapiens, UniProt Q13546).
T1 sequence (Q13546 whole entry): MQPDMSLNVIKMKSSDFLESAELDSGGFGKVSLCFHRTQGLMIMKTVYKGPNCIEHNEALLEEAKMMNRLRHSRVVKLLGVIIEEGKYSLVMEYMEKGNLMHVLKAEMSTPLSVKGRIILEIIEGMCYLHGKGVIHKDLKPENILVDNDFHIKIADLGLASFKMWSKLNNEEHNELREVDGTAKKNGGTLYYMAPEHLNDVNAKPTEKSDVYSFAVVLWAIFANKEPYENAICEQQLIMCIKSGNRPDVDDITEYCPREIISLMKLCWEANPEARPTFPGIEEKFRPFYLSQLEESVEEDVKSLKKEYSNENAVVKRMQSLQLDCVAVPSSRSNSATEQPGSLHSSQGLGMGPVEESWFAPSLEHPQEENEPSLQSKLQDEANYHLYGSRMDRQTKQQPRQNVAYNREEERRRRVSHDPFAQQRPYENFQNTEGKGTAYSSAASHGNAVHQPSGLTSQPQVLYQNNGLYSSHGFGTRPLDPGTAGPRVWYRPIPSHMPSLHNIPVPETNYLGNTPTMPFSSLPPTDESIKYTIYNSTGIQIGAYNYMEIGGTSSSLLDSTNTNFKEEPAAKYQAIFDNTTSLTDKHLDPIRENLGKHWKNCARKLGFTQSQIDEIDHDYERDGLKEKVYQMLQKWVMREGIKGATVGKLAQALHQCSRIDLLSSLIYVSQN
The experiment in a line: Inhibitory Activity Assay. The method, then: The compound of the present invention and the control compound were dissolved in the assay buffer (50 mM Hepes pH 7.5, 50 mM NaCl, 30 mM MgCl2, 1 mM DTT, 0.02% CHAPS, 0.5 mg/mL BSA), and diluted in a ratio of 1:1.5 using a 22-point titration (high concentration 2 μM), and then added to a 384-well plate. […] After completion of the reaction, 5 μL of ADP-Glo reagent containing 0.02% CHAPS was added to each well and incubated at room temperature for 1 h to terminate the kinase reaction and use up all remaining ATP. Then, 5 μL of ADP-Glo detection solution containing 0.02% CHAPS was added to each well and incubated at room temperature for 30 min to measure the emittance intensity.
In general, IC50 refers to the concentration needed to halve the response being measured. Turning to `C[C@H]1Oc2ccc(CCCN3CCN(CCCc4ccc5c(c4)N(C)C(=O)[C@@H](NC(=O)c4ncn(Cc6ccccc6)n4)[C@@H](C)O5)CC3)cc2N(C)C(=O)[C@H]1NC(=O)c1ncn(Cc2ccccc2)n1` [US20240270732, Compound I-122], the IC50 was 3.18 nM.

As for `C[C@H]1Oc2ccc(C#CCN3CCN(CC#Cc4ccc5c(c4)N(C)C(=O)[C@@H](NC(=O)c4ncn(Cc6ccccc6)n4)[C@@H](C)O5)CC3)cc2N(C)C(=O)[C@H]1NC(=O)c1ncn(Cc2ccccc2)n1` [US20240270732, Compound I-23], the IC50 came out at 4.66 nM.

The molecule `CN1C(=O)[C@@H](NC(=O)c2cn(Cc3ccccc3)cn2)COc2ccc(C#CCN3CCN(CC#Cc4ccc5c(c4)N(C)C(=O)[C@@H](NC(=O)c4cn(Cc6ccccc6)cn4)CO5)CC3)cc21` [US20240270732, Compound I-62] displayed an IC50 of 8.07 nM.

`C[C@H]1Oc2ccc(C#CCCCCC(=O)O)cc2N(C)C(=O)[C@H]1NC(=O)c1n[nH]c(Cc2ccccc2)n1` [US20240270732, Compound I-107] returned an IC50 of 19.9 nM.

Molecule `C[C@H]1Oc2ccc(C#CCCCN(C)CCCC#Cc3ccc4c(c3)N(C)C(=O)[C@@H](NC(=O)c3n[nH]c(Cc5ccccc5)n3)[C@@H](C)O4)cc2N(C)C(=O)[C@H]1NC(=O)c1n[nH]c(Cc2ccccc2)n1` [US20240270732, Compound I-95] gave an IC50 of 19.8 nM.

`C#CCN1CCN(CC#Cc2ccc3c(c2)N(C)C(=O)[C@@H](NC(=O)c2cn(Cc4ccccc4)cn2)CO3)CC1` [US20240270732, Compound I-61]: the IC50 is 8.43 nM.

Take `CC(O)C#Cc1ccc2c(c1)N(C)C(=O)[C@@H](NC(=O)c1n[nH]c(Cc3ccccc3)n1)[C@@H](C)O2` (some centres undefined) [US20240270732, Compound I-103]: the midpoint of inhibition, the IC50, lay at 10.2 nM.

For `C[C@H]1Oc2ccc(C#Cc3ccncc3)cc2N(C)C(=O)[C@H]1NC(=O)c1n[nH]c(Cc2ccccc2)n1` [US20240270732, Compound I-109], the half-inhibitory concentration (IC50) came out at 4.26 nM.

The molecule `C[C@H]1Oc2ccc(C#CCCCN(C)CCCC#Cc3ccc4c(c3)N(C)C(=O)[C@@H](NC(=O)c3ncn(Cc5ccccc5)n3)[C@@H](C)O4)cc2N(C)C(=O)[C@H]1NC(=O)c1ncn(Cc2ccccc2)n1` [US20240270732, Compound I-97] came in with an IC50 of 18.3 nM.

Molecule `C#CCN1CCN(CC#Cc2ccc3c(c2)N(C)C(=O)[C@@H](NC(=O)c2ncn(Cc4cccc(O)c4)n2)[C@@H](C)O3)CC1` [US20240270732, Compound I-75] returned a half-inhibitory concentration (IC50) of 21 nM.

With `C[C@H]1Oc2ccc(C#CCCO)cc2N(C)C(=O)[C@H]1NC(=O)c1ncn(Cc2ccccc2)n1` [US20240270732, Compound I-106], 6.53 nM corresponded to half-maximal inhibition (IC50).

Take `C#CCN1CCN(CC#Cc2ccc3c(c2)N(C)C(=O)[C@@H](NC(=O)c2n[nH]c(Cc4cccnc4)n2)[C@@H](C)O3)CC1` [US20240270732, Compound I-67]: half-maximal inhibition (IC50) was put at 14.6 nM.

Regarding `C[C@H]1Oc2ccc(C#Cc3ccncc3)cc2N(C)C(=O)[C@H]1NC(=O)c1ncn(Cc2ccccc2)n1` [US20240270732, Compound I-110], the 50% inhibitory concentration (IC50) was determined as 4.73 nM.

`CN1C(=O)[C@@H](NC(=O)c2n[nH]c(Cc3ccccc3)n2)COc2ccc(C#CCOCCOCCOCCOCCOCC#Cc3ccc4c(c3)N(C)C(=O)[C@@H](NC(=O)c3n[nH]c(Cc5ccccc5)n3)CO4)cc21` [US20240270732, Compound I-82-1] displayed a concentration for half-maximal inhibition (IC50) of 6.6 nM.

`C[C@H]1Oc2ccc(C#CCN3CCN(CC#Cc4ccc5c(c4)N(C)C(=O)[C@@H](NC(=O)c4cc(Cc6ccccc6)on4)[C@@H](C)O5)CC3)cc2N(C)C(=O)[C@H]1NC(=O)c1cc(Cc2ccccc2)on1` [US20240270732, Compound I-46] displayed an IC50 of 10.8 nM.

In turn, `C[C@H]1Oc2ccc(C#CCN3CCN(CC#Cc4ccc5c(c4)N(C)C(=O)[C@@H](NC(=O)c4n[nH]c(Cc6ccccc6)n4)[C@@H](C)O5)CC3)cc2N(C)C(=O)[C@H]1NC(=O)c1cn(Cc2ccccc2)cn1` [US20240270732, Compound I-8] displayed an IC50 of 9.5 nM.

The molecule `C[C@H]1Oc2ccc(C#CCN3CCN(CC#Cc4ccc5c(c4)N(C)C(=O)[C@@H](NC(=O)c4ncn(Cc6cccc(O)c6)n4)[C@@H](C)O5)CC3)cc2N(C)C(=O)[C@H]1NC(=O)c1ncn(Cc2cccc(O)c2)n1` [US20240270732, Compound I-76] returned an IC50 of 22.4 nM.

Take `C#CCOCCOCCOCCOCCOCC#Cc1ccc2c(c1)N(C)C(=O)[C@@H](NC(=O)c1ncn(Cc3ccccc3)n1)[C@@H](C)O2` [US20240270732, Compound I-84-2]: the IC50 stood at 8.03 nM.

`CN1C(=O)[C@@H](NC(=O)c2ncn(Cc3ccccc3)n2)COc2ccc(C#CCOCCOCCOCCOCCOCC#Cc3ccc4c(c3)N(C)C(=O)[C@@H](NC(=O)c3ncn(Cc5ccccc5)n3)CO4)cc21` [US20240270732, Compound I-85-1] yielded a 50% inhibitory concentration (IC50) of 7.49 nM.

`C[C@H]1Oc2ccc(C#Cc3cccc([N+](=O)[O-])c3)cc2N(C)C(=O)[C@H]1NC(=O)c1n[nH]c(Cc2ccccc2)n1` [US20240270732, Compound I-115] registered a half-maximal inhibitory concentration (IC50) of 7.35 nM.

As for `C[C@H]1Oc2ccc(C#CCN3CCN(CC#Cc4ccc5c(c4)N(C)C(=O)[C@@H](NC(=O)c4nnn(Cc6ccccc6)n4)CO5)CC3)cc2N(C)C(=O)[C@H]1NC(=O)c1ncn(Cc2ccccc2)n1` [US20240270732, Compound I-26], the IC50 is 3.73 nM.

Consider `COCCOCCOCCOCCOCC#Cc1ccc2c(c1)N(C)C(=O)[C@@H](NC(=O)c1ncn(Cc3ccccc3)n1)[C@@H](C)O2` [US20240270732, Compound I-101], for which inhibition was half-maximal at 2.54 nM (IC50).

In turn, `C[C@H]1Oc2ccc(C#CCN3CCN(CC#Cc4ccc5c(c4)N(C)C(=O)[C@@H](NC(=O)c4ncc(Cc6ccccc6)o4)[C@@H](C)O5)CC3)cc2N(C)C(=O)[C@H]1NC(=O)c1ncc(Cc2ccccc2)o1` [US20240270732, Compound I-44] returned a 50% inhibitory concentration (IC50) of 14.9 nM.

With `C[C@H]1Oc2ccc(C#CCOCCOCCOCCOCCOCC#CC#CCOCCOCCOCCOCCOCC#Cc3ccc4c(c3)N(C)C(=O)[C@@H](NC(=O)c3n[nH]c(Cc5ccccc5)n3)[C@@H](C)O4)cc2N(C)C(=O)[C@H]1NC(=O)c1n[nH]c(Cc2ccccc2)n1` [US20240270732, Compound I-87], the IC50 turned out to be 6.32 nM.

`C[C@H]1Oc2ccc(C#CCOCCOCCOCCOCCOCC#Cc3ccc4c(c3)N(C)C(=O)[C@@H](NC(=O)c3n[nH]c(Cc5ccccc5)n3)CO4)cc2N(C)C(=O)[C@H]1NC(=O)c1n[nH]c(Cc2ccccc2)n1` [US20240270732, Compound I-83] yielded an IC50 of 8.18 nM.

Turning to `CN1C(=O)[C@@H](NC(=O)c2ncn(Cc3ccccc3)n2)COc2ccc(CCCN3CCN(CCCc4ccc5c(c4)N(C)C(=O)[C@@H](NC(=O)c4ncn(Cc6ccccc6)n4)CO5)CC3)cc21` [US20240270732, Compound I-121], the half-inhibitory concentration (IC50) is 4.92 nM.

`C[C@H]1Oc2ccc(C#Cc3cccc([N+](=O)[O-])c3)cc2N(C)C(=O)[C@H]1NC(=O)c1ncn(Cc2ccccc2)n1` [US20240270732, Compound I-116]: the IC50 was 7.99 nM.

The molecule `C#CCN1CCN(CC#Cc2ccc3c(c2)N(C)C(=O)[C@@H](NC(=O)c2ncc(Cc4ccccc4)o2)[C@@H](C)O3)CC1` [US20240270732, Compound I-43] had an IC50 of 12.7 nM.

For `C#CCN1CCN(CC#Cc2ccc3c(c2)N(C)C(=O)[C@@H](NC(=O)c2cnn(Cc4ccccc4)c2)[C@@H](C)O3)CC1` [US20240270732, Compound I-47], the IC50 was determined as 13.6 nM.

`C[C@H]1Oc2ccc(C#CCN3CCN(CC#Cc4ccc5c(c4)N(C)C(=O)[C@@H](NC(=O)c4nnn(Cc6ccccc6)n4)[C@@H](C)O5)CC3)cc2N(C)C(=O)[C@H]1NC(=O)c1nnn(Cc2ccccc2)n1` [US20240270732, Compound I-56] returned an IC50 of 7.44 nM.

As for `CN1C(=O)[C@@H](NC(=O)c2n[nH]c(Cc3ccccc3)n2)COc2ccc(C#CCN3CCN(CC#CC#CCN4CCN(CC#Cc5ccc6c(c5)N(C)C(=O)[C@@H](NC(=O)c5n[nH]c(Cc7ccccc7)n5)CO6)CC4)CC3)cc21` [US20240270732, Compound I-92], the IC50 was 5.89 nM.

In the case of `C[C@H]1Oc2ccc(C#CCN3CCN(CC#Cc4ccc5c(c4)N(C)C(=O)[C@@H](NC(=O)c4nnc(Cc6ccccc6)o4)[C@@H](C)O5)CC3)cc2N(C)C(=O)[C@H]1NC(=O)c1nnc(Cc2ccccc2)o1` [US20240270732, Compound I-50], the IC50 came out at 14.3 nM.

The molecule `C[C@H]1Oc2ccc(C#CCN3CCN(CC#Cc4ccc5c(c4)NC(=O)[C@@H](NC(=O)c4n[nH]c(Cc6ccccc6)n4)[C@@H](C)O5)CC3)cc2NC(=O)[C@H]1NC(=O)c1n[nH]c(Cc2ccccc2)n1` [US20240270732, Compound I-17] registered an IC50 of 3.56 nM.

Turning to `O=C(N[C@H]1COc2ccc(C#CCN3CCN(CC#Cc4ccc5c(c4)NC(=O)[C@@H](NC(=O)c4ncn(Cc6ccccc6)n4)CO5)CC3)cc2NC1=O)c1ncn(Cc2ccccc2)n1` [US20240270732, Compound I-42], the IC50 was found to be 5.03 nM.

(Values after BindingDB's records for patent US20240270732 (Chengdu Biobel Biotechnology Co., 2024).)
